Source: patent US20180110796A1, “COMPOSITIONS AND METHODS FOR THE TREATMENT OF HBV INFECTION” (Spring Bank Pharmaceuticals, Inc., priority 2015, published 2018)

Legend:
HBV = test: Dose-ranging study in the HBV transgenic mouse model; assay type: in vivo; details: once-daily oral 1 to 100 mg/kg/day for 14 days
[1] = tested on: wild type HBV or resistant variants of HBV (polymerase M204V, M204I, L180M, L180M/M204V, N236T); test: Antiviral assays in cells chronically infected with wild type HBV or resistant variants (Example 4); assay type: cell-based; details: added to the cells daily for nine consecutive days
Description: Antiviral assays were carried out in cells chronically infected with resistant variants of HBV. In order to gauge the efficacy of Formula (IIa) and the antiviral nucleoside analogs lamivudine (3TC) and adefovir dipivoxil (ADV) against the tested strains, the in vitro activity (EC50, μM) was determined using six different cell samples chronically infected with HBV. Each cell sample was infected with either wild type HBV or a resistant variant of HBV, wherein the resistant variants comprise mutations in the HBV polymerase (P) at the following amino acid positions: M204V, M204I, L180M, L180M/M204V, and N236T. In each assay, Formula (IIa), 3TC, or ADV was added to the cells daily for nine consecutive days.

[2] = tested on: HBV-infected primary human hepatocytes; test: In vitro studies using HBV-infected primary human hepatocytes; assay type: cell-based
Text: (§1) During viral infections, virus-derived nucleic acids (both DNA and RNA) are mainly sensed by certain pattern-recognition receptors such as RIG-1 and NOD2 which are located within the cytoplasm of cells, including hepatocytes. Binding of these viral sensor proteins to PAMP within the viral nucleic acids activates downstream signaling pathways which include the mitochondrial antiviral signaling protein (MAVS) leading to the induction of the IFN-regulatory factor-3 (IRF-3) and NF-κB dependent gene expression, and the subsequent production of type I and type III IFNs and inflammatory cytokines. Thus, sensing of viral nucleic acids is a crucial process to induce antiviral innate immune responses for limiting viral replication and for activation of adaptive immunity. For HBV it has been recently shown that RIG-1 sensing is mediated through recognition of the 5′-end ϵ region of the HBV pg RNA which leads to the induction of type III rather than type I IFNs in human primary hepatocytes in response to in vitro infection. In addition, activated RIG-1 is able to counter-act the interaction of the HBV polymerase protein with the HBV pgRNA in an IFN pathway independent manner resulting in suppressed viral replication. […]

[3] = tested on: IFN-α, IFN-β, CXCL10, IL-6, ISG15, OAS1, RIG-I/NOD2 pathway transcripts; test: Host immune response gene transcripts in blood and liver by real time PCR (Example 2); assay type: in vivo, woodchuck (Marmota monax)
Description: Immune responses associated with Formula (IIa) treatment were determined by changes in RNA transcript levels of IFN-α, IFN-β, IFN-γ induced protein 10 (IP-10 or CXCL10), interleukin 6 (IL-6), interferon-induced 17 kDa protein (ISG15), and 2′-5′-oligoadenylate synthetase 1 (OAS1) in blood and liver using PCR techniques. Whole blood was collected into PAXgene blood tubes (Qiagen, Redwood City, Calif.) at pretreatment (week-1 and T0), during treatment (weeks 6 and 12), and during follow-up (week 18) and stored at −70° C. until use. Total RNA was isolated with on-column DNase I digestion using the PAXgene Blood miRNA Kit (Qiagen). Total RNA was further isolated from liver biopsy samples collected at pretreatment (week-1), during treatment (weeks 6 and 12), and at the end of the study (week 20) using the RNeasy Mini Kit (Qiagen) with on-column DNase I digestion using the RNase-Free DNase Set (Qiagen). Following reverse transcription of mRNA with the High Capacity cDNA Reverse Transcription Kit (Applied Biosystems) using oligo(dT), complementary (c) DNA samples were amplified on a 7500 Real Time PCR System instrument (Applied Biosystems) using TaqMan Gene Expression Master Mix (Applied Biosystems) and woodchuck-specific primers and probes (Supplementary Table 1). Woodchuck 18S rRNA expression was used to normalize target gene expression. Transcription levels of target genes were calculated as a fold-change relative to pretreatment level at week-1 (liver) or at T0 (blood) using the formula 2^−ΔΔCt. Samples from a subset of woodchucks from the LD and HD groups were analyzed for expression changes of genes involved in the RIG-I/NOD2 pathway induced by Formula (IIa), including RIG-I, NOD2, transmembrane protein 173 (TMEM173 or STING), interferon regulatory factor 3 (IRF3), and IRF7.

HCV, Norovirus and RSV = test: In vitro and in vivo studies against RNA viruses
Text: as §1

SMILES: COC1[C@@H](OP(=O)(OC[C@H]2O[C@@H](n3cnc4c(N)ncnc43)C[C@H]2O)SCOC(=O)OC(C)C)[C@@H](CO)O[C@H]1n1ccc(=O)[nH]c1=O (some centres unmarked) [Formula (IIa)]
- liver HBV DNA (HBV): significant reduction
- efficacy against cells infected with wild type and resistant HBV strains (in vitro activity, FIG. 31) [1]: efficacious against cells infected with all the HBV strains tested
- HBV DNA levels [2]: significant reduction
- secreted HBsAg and HBV e antigen (HBeAg) ([2]; similar to IFN-α treatment): declines
- activation of the RIG-I/NOD2 pathway (liver transcript levels of RIG-I, NOD2, TMEM173, IRF3) ([3]; 15 or 30 mg/kg, n=3 each): long-lasting activation
- CXCL10 expression in liver ([3]; both dose groups, liver): significantly induced
- mRNA expression of type I IFNs (IFN-α, IFN-β) and ISGs (OAS1, ISG15) in blood versus pretreatment ([3]; high dose 30 mg/kg, blood): significant induction
- expression of IFN-β, IL-6 and OAS1 in liver versus pretreatment ([3]; high dose group, liver): significantly increased expression
- expression of IL-6 and CXCL10 in blood versus pretreatment ([3]; low and high doses, blood): significantly induced
- expression of IFN-α in liver versus pretreatment ([3]; low dose group, liver): significantly induced
- antiviral activity against RNA viruses including HCV, Norovirus and RSV (HCV, Norovirus and RSV): potent antiviral activity
